Source: US9274102B2, “Method of screening for an inhibitor of odor cause by furaneol” (Kao Corporation, priority 2013, dated 2016)

Experiments:
olfactory receptor OR5K1 [1] = target: T1, olfactory receptor OR5K1 (Homo sapiens, UniProt Q8NHB7); experiment: Antagonistic activity against the response of OR5K1 to Furaneol (luciferase reporter gene assay, HEK293 cells); type: cell-based; conditions: Furaneol 3 mM, test substance 100 μM; OR5K1-expressing HEK293 cells; read-out: rate of inhibition of the response of OR5K1 to Furaneol
T1 construct: Flag-Rho tag (N); expressed in transfected cells; host or cells: HEK293
T1 sequence (Q8NHB7 1-308): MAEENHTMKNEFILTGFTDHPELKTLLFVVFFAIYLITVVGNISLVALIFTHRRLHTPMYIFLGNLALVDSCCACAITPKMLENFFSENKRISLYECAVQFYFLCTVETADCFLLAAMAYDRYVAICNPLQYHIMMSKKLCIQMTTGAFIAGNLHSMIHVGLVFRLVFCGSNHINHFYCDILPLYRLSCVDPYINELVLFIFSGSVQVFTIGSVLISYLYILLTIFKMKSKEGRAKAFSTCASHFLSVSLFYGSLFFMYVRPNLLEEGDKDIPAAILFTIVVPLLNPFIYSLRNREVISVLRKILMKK
Method: 84 types of test substances were examined for their antagonistic activity against the response of the olfactory receptor OR5K1 to Furaneol.
Furaneol (3 mM) and each test substance (100 μM) were added to HEK293 cells allowed to express the olfactory receptor OR5K1 by the same procedures as in Example 2. The response of the olfactory receptor was measured to evaluate change in receptor response caused by the addition of the test substance.
The rate of inhibition of the receptor response by the test substance was calculated as follows: firefly luciferase-derived luminescence intensity (Y) in the olfactory receptor OR5K1-expressing cells without Furaneol stimulation was subtracted from firefly luciferase-derived luminescence intensity (X) induced by stimulation with Furaneol alone to determine receptor activity (X−Y) based on the stimulation with Furaneol alone. Likewise, the luminescence intensity (Y) in the cells without Furaneol stimulation was subtracted from luminescence intensity (Z) induced by stimulation with the mixture of Furaneol and the test substance to determine receptor activity (Z−Y) in the presence of the test substance. The rate of reduction in the receptor activity (Z−Y) in the presence of the test substance with respect to the receptor activity (X−Y) based on the stimulation with Furaneol alone was calculated according to an expression shown below to determine the rate of inhibition of the receptor response by the test substance. In this assay, a plurality of independent duplicate experiments were performed. An average of the experiments in each run was obtained. Rate of inhibition (%)={1−(Z−Y)/(X−Y)}×100

olfactory receptor OR5K1 [2] = target: T1, olfactory receptor OR5K1; experiment: Luciferase reporter gene assay: response of olfactory receptors expressed on HEK293 cells to Furaneol; type: cell-based
Method: HEK293 cells expressing each of 400 types of human olfactory receptors were prepared. Each reaction solution having the composition shown in Table 1 was prepared, then left standing for 15 minutes in a clean bench, and then added to each well of a 96-well plate (Becton, Dickinson and Company). Subsequently, the HEK293 cells (3×10^5 cells/cm^2) were inoculated thereto at 100 μL/well and then cultured at 37° C. for 24 hours in an incubator kept at 5% CO2.
The olfactory receptors expressed on the HEK293 cells are conjugated with intracellular Gαs to activate adenylate cyclase, thereby increasing intracellular cAMP levels. In this study, their responses to Furaneol were measured using luciferase reporter gene assay which involved monitoring increase in intracellular cAMP level as luminescence intensity derived from a firefly luciferase gene (fluc2P-CRE-hygro). […]
A medium was removed from the cultures prepared in the preceding paragraph 3). […] The luciferase activity was measured using Dual-Glo™ luciferase assay system (Promega Corp.) according to the instruction manual of the product. Firefly luciferase-derived luminescence intensity induced by stimulation with Furaneol was divided by luminescence intensity in the cells without Furaneol stimulation to calculate a value as fold increase, which was in turn used as an index for response intensity. […]

Row | SMILES | inhibition at 100 µM (olfactory receptor OR5K1 [1]) | concentration dependence of OR5K1 response to Furaneol (olfactory receptor OR5K1 [2]; Furaneol 0, 3, 10, 30, 100, 300, 1000 and 3000 μM, OR5K1 with human RTP1S on HEK293 cells, FIG. 2) | response of olfactory receptor to Furaneol (fold increase of luminescence) (olfactory receptor OR5K1 [2]; Furaneol 3 mM, 400 types of human olfactory receptors screened in HEK293 cells, FIG. 1)
1 | CC(=O)O[C@]1(C)CC[C@@]23C[C@@H]1C(C)(C)[C@@H]2CC[C@H]3C [Cedryl acetate] | ≥ 50% |  | 
2 | CC(C)=CCCC(C)=CC=O [Citral] | ≥ 75% |  | 
3 | CC1(CO)CC1CC1CC2CC2(C)C1(C)C [Javanol(R), (1-Methyl-2-(1,2,2-trimethylbicyclo[3.1.0]-hex-3-ylmethyl)cyclopropyl)methanol] | ≥ 40% |  | 
4 | CC(=O)c1cc2c(cc1C)C(C)(C)C(C)CC2(C)C [Tonalid(R), 1-(5,6,7,8-tetrahydro-3,5,5,6,8,8-hexamethyl-2-naphthalenyl)-ethanone] | ≥ 75% |  | 
5 | CC(=O)C1=C(C)C2CC3(C1)C(C)CCC3C2(C)C (centres unmarked) [acetylcedrene, 1-(2,3,4,7,8,8a-hexahydro-3,6,8,8-tetramethyl-1H-3a,7-methanoazulen-5-yl)-ethanone] | ≥ 75% |  | 
6 | CCC(=CCC1CC=C(C)C1(C)C)CO (centres unmarked) [bangalol, 2-Ethyl-4-(2,2,3-trimethyl-3-cyclopenten-1-yl)-2-buten-1-ol] | ≥ 50% |  | 
7 | CC(C)(C)c1ccc(CCC=O)cc1 [bourgeonal, 3-(4-tert-Butylphenyl)propanal] | ≥ 75% |  | 
8 | Cc1ccc(C(C)C)c(O)c1 [thymol, 5-Methyl-2-(1-methylethyl)-phenol] | ≥ 75% |  | 

Second part, led by results:

Row | inhibition at 100 µM (olfactory receptor OR5K1 [1]) | concentration dependence of OR5K1 response to Furaneol (olfactory receptor OR5K1 [2]; Furaneol 0, 3, 10, 30, 100, 300, 1000 and 3000 μM, OR5K1 with human RTP1S on HEK293 cells, FIG. 2) | SMILES | response of olfactory receptor to Furaneol (fold increase of luminescence) (olfactory receptor OR5K1 [2]; Furaneol 3 mM, 400 types of human olfactory receptors screened in HEK293 cells, FIG. 1)
9 |  | concentration-dependent response | CC1=C(O)C(=O)C(C)O1 (centres unmarked) [Furaneol, 2,5-dimethyl-4-hydroxy-3(2H)-furanone] | only the olfactory receptor OR5K1 exhibited a response
10 | ≥ 75% |  | CC(=O)C1(C)CC2=C(CCCC2(C)C)CC1C (centres unmarked) [Iso E Super, 7-Acetyl-1,2,3,4,5,6,7,8-octahydro-1,1,6,7-tetramethyl-naphthalene] | 
11 | ≥ 75% |  | CC1C/C=C/CCCCCCCCCC(=O)C1 [Muscenone(R) Delta, (5E)-3-Methylcyclopentadec-5-en-1-one] | 
12 | ≥ 75% |  | CC1COCc2cc3c(cc21)C(C)(C)C(C)C3(C)C (centres unmarked) [galaxolide, 4,6,6,7,8,8-Hexamethyl-1,3,4,6,7,8-hexahydrocyclopenta[g]isochromene] | 
13 | ≥ 75% |  | CC(=O)/C(C)=C/C1C(C)=CCCC1(C)C (centres unmarked) [methyl ionone-G, (E)-3-Methyl-4-(2,6,6-trimethylcyclohex-2-en-1-yl)but-3-en-2-one] | 
